Test results reported in patent publication US11357728B2, “Liposome having inner water phase containing sulfobutyl ether cyclodextrin salt” (CSPC ZHONGQI PHARMACEUTICAL TECHNOLOGY (SHIJIAZHUANG) CO., …, priority 2009, dated 2022).

Legend:
[1] = test system: Prostate RM-1 Tumor Model; test: Anti-tumor efficacies of topotecan liposomes on prostate RM-1 tumor model; format: in vivo, female C57 mice; conditions: single i.v. 10 mg/kg; for Tumor volume (mm^3): n = 10, x ± sd
Procedure: RM-1 […] cancer cells were collected, and diluted with 1640 medium. After dilution, the tumor cell number was modulated to 2.0×10^6 cells/ml. 0.2 mL of the tumor cell suspension containing about 4×10^5 tumor cells was inoculated into forward limb oxter subcutaneous tissue of female C57 mice under aseptic condition. Twelve days after inoculation, mice were randomized by tumor volume into groups and administered with a single i.v. injection at a dose of 10 mg/kg.
The mice were bred normally after administration. Tumor diameters were measured to dynamically evaluate anti-tumor efficacies of different formulations. Tumor volume (TV) was calculated with the following formula: TV=½×a×b^2, in which a and b represent length and width, respectively.
The tumor volumes were calculated by using the measurement results. The experiment data were analyzed using SPSS 11.5 statistics software.

KM mice = test: Toxicity of liposomal formulations in KM mice
[2] = dosage level 40.6 mg/kg topotecan, two female KM mice per group, 14 days

For `CC[C@@]1(O)C(=O)OCc2c1cc1n(c2=O)Cc2cc3c(CN(C)C)c(O)ccc3nc2-1` [Free topotecan, topotecan], the “suppression of tumor growth in comparison with 5% glucose for injection as control” value ([1]; RM-1 tumor model) was “did not significantly suppress the growth of tumor”, the “Tumor volume (mm^3)” value ([1]; day 0 after administration) was 223.0 ± 65.7 mm^3 and the “Tumor volume (mm^3)” value ([1]; day 2 after administration) was 484.0 ± 154.7 mm^3. For the same compound, the “Tumor volume (mm^3)” value ([1]; day 4 after administration) was 606.0 ± 183.1 mm^3, the “Tumor volume (mm^3)” value ([1]; day 6 after administration) was 1060.7 ± 393.0 mm^3 and the “Tumor volume (mm^3)” value ([1]; day 8 after administration) was 1301.8 ± 563.7 mm^3. For the same compound, the “Tumor volume (mm^3)” value ([1]; day 9 after administration) was 1628.5 ± 835.4 mm^3, the “Tumor volume (mm^3)” value ([1]; day 13 after administration) was 3592.9 ± 1523.5 mm^3 and the “Tumor volume (mm^3)” value ([1]; day 15 after administration) was 6639.3 ± 2388.2 mm^3. For the same compound, the “Number of Animals with >15% weight loss” value (KM mice; dosage level 32.5 mg/kg topotecan, two female KM mice per group, 14 days) was 1, the “Number of Animals with >15% weight loss” value (KM mice; [2]) was 2 and the “number of dead animals” value (KM mice; [2]) was 1. The order of toxicity (KM mice; topotecan formulations, KM mice) was “free topotecan<liposome having SBE-CD/TA as inner water phase<liposome having sucrose octasulfate as inner water phase”.
